The structures appear in SMILES notation.

The assay deals with Cyclic GMP-AMP synthase (Homo sapiens, UniProt Q8N884). Kind of assay: Biochemical Assay. The procedure:
The enzyme solution was transferred into the reagent buffer to give a final concentration of 30 nM. […] The reaction plates were then centrifuged at 1000 rpm for 1 minute and incubated at room temperature for 1 h.

Chain of Cyclic GMP-AMP synthase (Q8N884 whole entry): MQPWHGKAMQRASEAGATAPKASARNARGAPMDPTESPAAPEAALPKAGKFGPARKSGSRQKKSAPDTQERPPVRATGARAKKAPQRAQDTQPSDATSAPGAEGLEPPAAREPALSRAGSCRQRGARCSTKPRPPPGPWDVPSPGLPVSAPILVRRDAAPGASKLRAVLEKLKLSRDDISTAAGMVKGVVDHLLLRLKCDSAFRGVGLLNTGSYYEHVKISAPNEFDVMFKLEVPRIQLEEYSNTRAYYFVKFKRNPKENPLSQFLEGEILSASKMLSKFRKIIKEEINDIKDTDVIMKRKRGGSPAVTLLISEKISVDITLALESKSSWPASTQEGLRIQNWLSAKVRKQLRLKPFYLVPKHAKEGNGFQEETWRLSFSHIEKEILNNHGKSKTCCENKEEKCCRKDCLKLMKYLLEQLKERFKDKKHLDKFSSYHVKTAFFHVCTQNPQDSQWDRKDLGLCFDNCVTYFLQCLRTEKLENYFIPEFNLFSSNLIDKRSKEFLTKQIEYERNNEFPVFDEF

As to `COc1cc2c(-n3ccnc3)c(-c3nnc(C(CN(C)C)OC)[nH]3)n(C)c2c(F)c1Cl` (configuration not stated) [US12404261, Example 97], the IC50 turned out to be 104 nM. The same measure for `Cn1c(-c2nnc(C(F)(F)F)[nH]2)c(-n2ccnc2)c2cc(O)c(Cl)cc21` [US12404261, Example 115]: 67 nM.

On to `COCC(C1=NNC(c2c(-n3ccnc3)c3cc(OC)c(Cl)c(F)c3n2C)N1)N1CCOCC1` (configuration not stated) [US12404261, Example 126], for which the IC50 was found to be 411 nM. To `Cn1c(-c2nnc(C(F)(F)F)[nH]2)c(-c2cn[nH]c2)c2ccc(Cl)c(C#N)c21` [US12404261, Example 27] belongs 137 nM. Turning to `COc1cc2c(-c3cn[nH]c3)c(-c3nnc(C(CN(C)C)OC)[nH]3)n(C)c2c(F)c1Cl` (configuration not stated) [US12404261, Example 75], the IC50 is 70 nM. In turn, `COc1cc2c(-n3ccnc3)c(-c3nnc(C(=O)N(C)C)[nH]3)n(C)c2c(C#N)c1C#N` [US12404261, Example 120] gave a half-inhibitory concentration (IC50) of 172 nM.

Turning to `FC(F)(F)c1nnc(-c2[nH]c3cc(Cl)c(OC4CC4)cc3c2-n2ccnc2)[nH]1` [US12404261, Example 113], half-maximal inhibition (IC50) was put at 861 nM.

One may read the IC50 as the midpoint of a concentration-inhibition curve. A higher IC50 goes with weaker potency in that assay.

The record behind these values is BindingDB's records for patent US12404261 (Novartis, 2025).
